Data on seven molecules can be found in US9650664B2, “Use of photocleavable compounds” (FEMTONICS KFT, priority 2011, dated 2017).

Data set [1] can be described thus: weight increase on storage (hygroscopicity). The class given is physicochemical. Conditions: 25° C. 50% relative humidity, after 72 hours storage. Here is the method: We measured the weight increase of MNI-Glubase and its salts with hydrochloric and trifluoroacetic acid at 25° C. 50% relative humidity.
Data set [2] has as its system hippocampal pyramide cell. Nature of the data set: two-photon stimulation of a hippocampal pyramide cell (Example 20). It counts as cell-based, Wistar rats. Conditions: for Calcium tranziens by two-photon stimulation / somatically recorded EPSP by two-photon stimulation: 2.5 mM, 740 nm, with L-glutamic acid dehydrogenase and NADP; for toxicity: pyramid cell response to 500 ms -100, 0 and 125 pA current injection, waveform after stimulation. The method, then: (§1) Acute hippocampus slices were prepared from 16-20 day old Wistar rats using isoflurane anaesthesia followed by swift decapitation. The process was in accordance with the Hungarian Act of Animal Care and Experimentation (1998. XXVIII, section 243). Coronal (300 μm) brain slices were cut with a vibratome and stored at room temperature in artificial cerebrospinal fluid (ACSF). The composition of the ACSF solution is described above.
(§2) Hippocampus neurons in CA1 stratum radiatum near the border of the stratum lacunosum-moleculare were visualized using 900 nm infrared oblique illumination. Current-clamp recordings were made at 32° C. (MultiClamp 700B, Digidata 1440; Molecular Devices, Sunnyvale, Calif., USA) with glass electrodes (6-9 MΩ) filled with (in mM): 125 K-gluconate, 20 KCl, 10 HEPES, 10 Di-Tris-salt phosphocreatine, 0.3 Na-GTP, 4 Mg-ATP, 10 NaCl, 0.06 Oregon Green BAPTA-1 (OGB-1) and biocytin. Cells with a resting membrane potential more negative than −50 mV were accepted. The recorded cells were classified as nonpyramidal cells according to their electrophysiological properties.
a.) After achieving the whole-cell mode and filling the interneurons with 60 μM OGB-1, the bath solution was exchanged to ACSF containing MNI-Glu-TFA [2.5 mM, Tocris]. Photolysis of MNI-Glu-TFA was performed with 710-830 nm ultrafast, pulsed laser light (Mai Tai HP Deep See, SpectraPhysics, Mountain View, Calif.). The intensity of the uncaging laser beam was controlled with an electro-optical modulator (Model 350-80 LA, Conoptics). Dispersion compensation was set to have maximal response at the depth of uncaging (50-80 μm from surface). The uncaging laser beam was coupled into the imaging optical pathway with a dichroic mirror (custom laser combiner, z750bcm; Chroma Technology Corp, Rockingham, USA). Chromatic aberration was compensated at the focal plane. Radial and axial beam (imaging and photochemical stimulating) alignment errors were held below 100 nm and 300 nm, respectively. Imaging was interleaved with two-photon glutamate uncaging periods, when galvanometers jumped to the maximum 15-25 selected locations (<60 μs jump time) and returned back to the 3D or 2D trajectory thereafter. The position of uncaging sites was finely adjusted according to background images taken. Photolysis of caged glutamate was performed in “clustered” (0.8±0.1 μm distance between inputs) patterns along the dendrite. The single spot uncaging time and laser intensity was set to reproduce uEPSPs and mEPSPs induced by the local application of high osmolar external solution at similar distances from the soma (amplitude of unitary gluEPSP: 0.56±0.09 mV, mEPSPs: 0.58±0.1, uEPSP: 0.55±0.12; exposure time 0.2-0.5 ms/input). Small drifts of the sample (on the order of 0.1-0.2 μm) during the mapping were compensated manually according to regularly taken background images. b.) After the test the perfusion rate was set to 10 ml/min in order to increase the exchange rate of ACSF containing 2.5 mM DNI-Glu*TFA used in the subsequent test. The test was repeated with the same setting of the equipment on the same dendrite section.
The experiment was carried out according to Example 16 with the difference that the cell was filled with calcium sensitive dye (Fluo4) and anatomical dye (ALEXA 594). The experiments were carried out in accordance of the Example 16 with the following differences: after patch clamp the perfusion solution exchange to ACSF containing 2.5 mM iDMPO-DNI-Glutamic acid*2TFA and, or ACSF containing 2.5 mM iDMBO-DNI-Glutamic acid*2TFA, 0.1-0.2 units/ml of L-glutamic acid dehydrogenase and β-Nicotinamide adenine dinucleotide phosphate for the second measurement. The β-Nicotinamide adenine dinucleotide phosphate was kept in a concentration of 50-100 μM during the experiments. All chemical agents (cage compound, dehidrogenase, NADP apply into the bath). During the experiments the evaporation loss of dH2O was continuously refilled. […]

Data set [3] has as its system Hippocampus neurons in CA1 stratum radiatum. Description: spontaneous activity of the cell (EPSP frequency), voltage-clamp test. It counts as cell-based, Wistar rats. Here is the method: as §1, §2
A.) Using the test setup of the two-photon excitation process according to Example 16 spontaneous potential changes of the observed cell was measured.
At the beginning of the experiment the control level of potential changes (EPSP) was measured in the absence of DNI-Glu. The measured fluctuation is shown in FIG. 1/A. Following the test DNI-Glu (2.5 mM) was added to the measuring cell. The measured fluctuation is shown in FIG. 1/B. Then 0.1-0.2 unit/ml L-glutamic acid dehydrogenase enzyme and 200 μM NADP (β-Nicotinamide adenine dinucleotide phosphate) were added.
B.) The experiment described in point A.) was repeated 8 times using other cells in each case. The column diagram can be seen on the left side. The average of the control level is shown in column a.). The average of the change due to the caged compound is shown in column b.), while the average level after the addition of the enzyme in column c.).

Data set [4] has the same test system. Nature of the data set: two-photon uncaging on acute hippocampus slices with neutralizing agents (EPSP, Ca2+ transient). The class given is cell-based, Wistar rats. Conditions: 2.5 mM. Here is the method: as §1, §2
Two-photon imaging started 15-20 minutes after attaining the whole-cell configuration on a two-photon laser-scanning system (Femto2D, Femtonics Ltd., Budapest) using femtosecond lasers (830-850 nm), Mai Tai HP, SpectraPhysics, Mountain View, Calif.). […]

For data set [5] the following is noted: according to WO2008/094922; cited from earlier work.
The next data set has as its system hippocampus neurons. Conditions: according to WO2008/094922; cited from earlier work.
A short description of data set [6]: spontaneous hydrolysis in ACSF. It counts as physicochemical. Here is the method: […] The solution was sampled at the beginning of the storage and 48 hours later and 4-methoxy-5,7-dinitro-2,3-dihydro-1H-indole was identified from the hydrolysis products by using LCMS method. The compound was identified by the peak of its molecule weight at 240. The sample taken after 48 hours was measured with HPLC equipment. Without correction 46.7% of DNI-Glu*TFA hydrolysed.

`COc1ccc([N+](=O)[O-])c2c1CCN2C(=O)CCC(N)C(=O)O` (stereo not drawn) [MNI-Glubase, 2-amino-5-(4-methoxy-7-nitro-2,3-dihydro-indol-1-yl)-5-oxo-pentanoic acid] showed a weight increase in data set [1] of 20%.

`COc1ccc([N+](=O)[O-])c2c1CCN2C(=O)CCC(N)C(=O)O.O=C(O)C(F)(F)F` (stereo not drawn) [MNI-Glu trifluoroacetic acid salt]: the weight increase in data set [1] is on record as 4%.

As for “di-trifluoroacetic acid salt of 2-amino-1-(4′-dimethylamino-isopropoxy-5′,7′-dinitro-2′,3′-dihydro-indol-1′-yl)-5-oxo-pentanoic [iDMPO-DNI-Glu TFA]”, in data set [2], the “Calcium tranziens by two-photon stimulation” value is recorded as “could evoke”, the “somatically recorded EPSP by two-photon stimulation” value is listed as “could evoke” and the toxicity result is recorded as “not detected”.

As for `COc1c([N+](=O)[O-])cc([N+](=O)[O-])c2c1CCN2C(=O)CCC(N)C(=O)O` (stereo not drawn) [DNI-Glu, 2-amino-5-(4′-methoxy-5′,7′-dinitro-2′,3′-dihydro-indol-1-yl)-5-oxo-pentanoic acid], in data set [3] (DNI-Glu 2.5 mM, then L-glutamic acid dehydrogenase and NADP), the “frequency of EPSP / spontaneous responses after addition of glutamate dehydrogenase enzyme” value is “restored to the control level”. In addition, in data set [3] (DNI-Glu 2.5 mM, enzyme = 0.1-0.2 unit/ml L-glutamic acid dehydrogenase and 200 μM NADP, repeated 8 times, other cells), the “EPSP Frequency MEAN” value was determined as 3.87 Hz. For the same molecule, the “frequency of EPSP on addition to the perfusion solution” value in data set [3] (DNI-Glu added, no enzyme) is listed as “increased”. Also, the “excitatory postsynaptic potential (EPSP) resulted by irradiation, compared with MNI-Glu” value in data set [4] (FIG. 2/A) was “significantly higher”. In addition, the “Ca2+ transient signal as a response of the irradiation, compared with MNI-Glu” value in data set [4] (FIG. 2/B) is reported as “significantly higher”. For the same molecule, the “dissolution in physiological solutions” value in data set [5] was “so bad”. Moreover, the “electrical signals in two-photon irradiation experiments” value in the data set with hippocampus neurons is listed as “no electrical signals”.

As to `COc1c([N+](=O)[O-])cc([N+](=O)[O-])c2c1CCN2C(=O)CCC(N)C(=O)O.O=C(O)C(F)(F)F` (stereo not drawn) [DNI-Glu*TFA, trifluoroacetic acid salt of 2-amino-5-(4′-methoxy-5′,7′-dinitro-2′,3′-dihydro-indol-1′-yl)-5-oxo-pentanoic acid], the hydrolysed in data set [6] (0.06 mg/ml in ACSF, stored at 32° C., 48 hours, HPLC, without correction) was determined as 46.7%. Further, the “speed of the formation of the glutamic acid” value in data set [6] (in 12 ml of ACSF) was 1 µmol/min.

For the molecule `COc1ccc([N+](=O)[O-])c2c1CCN2C(=O)CC[C@H](N)C(=O)O.Cl` [MNI-Glu HCl salt], the weight increase in data set [1] is on record as 13.6%.

Regarding “di-trifluoroacetic acid salt of 2-amino-1-(4′-dimethylamino-isobutoxy-5′,7′-dinitro-2′,3′-dihydro-indol-1′-yl)-5-oxo-pentanoic [iDMBO-DNI-Glu TFA]”, in data set [2], the “Calcium tranziens by two-photon stimulation” value is recorded as “the same as Panel (D)”, the “somatically recorded EPSP by two-photon stimulation” value is reported as “the same as Panel (D)” and the toxicity result is “not detected”.
